Reference: patent US20250041216A1, “Methotrexate Composition” (Rosemont Pharmaceuticals Ltd., priority 2012, published 2025)

Experiment: Stability studies of example 1 formulation at different pH and buffer strength, visual precipitate (Table 3)
Type: physicochemical
Settings: pH values below 6.0, over time
Protocol: Batches were prepared at various pHs in the range 5.6-6.0 and were prepared at ½, 1/10th and 1/20th the original buffer strength of example 1 (i.e. the citric acid monohydrate and disodium hydrogen phosphate dihydrate buffer system). The original buffer strength was taken from a citrate-phosphate buffer table (http://microscopy.berkeley.edu/Resources/instruction/buffers.html).
The stability studies were undertaken using the example 1 formulation but using either a citrate-phosphate buffer system at half the strength (i.e. 43 mmol) or 1/10th of the strength (i.e. 8.7 mmol) compared to that of example 1. The formulations were adjusted to 5 different pH values; 5.6, 5.7, 5.8, 5.9 and 6.0. One set of formulations were stored at 5° C. and one set of formulations were stored at 25° C. for each buffer strength and each pH value for the duration of the study. The study took place over a 6-month time period.

- Precipitation out of solution: precipitate out of solution over time
Compound: CN(Cc1cnc2nc(N)nc(N)c2n1)c1ccc(C(=O)N[C@@H](CCC(=O)O)C(=O)O)cc1 [Methotrexate]
